Results from patent US11634451B2, “Method for the site-specific enzymatic labelling of nucleic acids in vitro by incorporation of unnatural nucleotides” (The Scripps Research Institute, priority 2013, dated 2023).
Marks after values point to notes of the source that are not given here.

Tests used:
Taq polymerase = molecular target: T1, Taq polymerase (Thermus aquaticus, UniProt P19821); assay: PCR-based screen and amplification of DNA containing unnatural base pairs, Taq (Example 1); format: biochemical
T1 construct: purchased New England Biolabs (Ipswich, Mass.)
Procedure: (§1) The triphosphates of the 6 group were prepared from the previously reported nucleosides (Kubelka, T., Slavetinska, L., Eigner, V. and Hocek, M. Synthesis of 2,6-disubstituted pyridin-3-yl C-2′-deoxyribonucleosides through chemoselective transformations of bromo-chloropyridine C-nucleosides. Org. Biomol. Chem., 11, 4702-4718) according to Ludwig, J. and Eckstein, F. Rapid and efficient synthesis of nucleoside 5′-0-(1-thiotriphosphates), 5′-triphosphates and 2′,3′-cyclophosphorothioates using 2-chloro-4H-1,3,2-benzodioxaphosphorin-4-one. J. Org. Chem., 54, 631-635. The purity of all other triphosphates was confirmed by MALDI-TOF and UV-VIS. Taq and OneTaq DNA polymerases were purchased from New England Biolabs (Ipswich, Mass.). A mixture of dNTPs was purchased from Fermentas (Glen Burnie, Md.). SYBR Green I Nucleic Acid Gel Stain (10,000×) was purchased from Life Technologies (Carlsbad, Calif.). The synthesis of the DNA templates, D8 (Malyshev, D. A., Dhami, K., Quach, H. T., Lavergne, T., Ordoukhanian, P., Torkamani, A. and Romesberg, F. E. Efficient and sequence-independent replication of DNA containing a third base pair establishes a functional six-letter genetic alphabet. Proc. Natl. Acad. Sci. USA, 109, 12005-12010), used for screening rounds 1-5, and D6 (Malyshev, D. A., Seo, Y. J., Ordoukhanian, P. and Romesberg, F. E. PCR with an expanded genetic alphabet. J. Am. Chem. Soc., 131, 14620-14621), used for all other amplifications, was described previously. Sanger sequencing was carried out as described previously (Malyshev, D. A., Dhami, K., Quach, H. T., Lavergne, T., Ordoukhanian, P., Torkamani, A. and Romesberg, F. E. Efficient and sequence-independent replication of DNA containing a third base pair establishes a functional six-letter genetic alphabet. Proc. Natl. Acad. Sci. USA, 109, 12005-12010). Raw Sanger sequencing traces were used to determine the percent retention of the unnatural base pairs, which was converted to fidelity per doubling, as described (Malyshev, D. A., Dhami, K., Quach, H. T., Lavergne, T., Ordoukhanian, P., Torkamani, A. and Romesberg, F. E. Efficient and sequence-independent replication of DNA containing a third base pair establishes a functional six-letter genetic alphabet. Proc. Natl. Acad. Sci. USA, 109, 12005-12010; Malyshev, D. A., Seo, Y. J., Ordoukhanian, P. and Romesberg, F. E. PCR with an expanded genetic alphabet. J. Am. Chem. Soc., 131, 14620-14621).
(§2) All PCR amplifications were performed in a CFX Connect Real-Time PCR Detection System (Bio-Rad), in a total volume of 25 μL using the following conditions: 1× OneTaq reaction buffer, 0.5× Sybr Green I, MgSO4 adjusted to 4.0 mM, 0.2 mM of each dNTP, 50 μM of each unnatural triphosphate, […] of Primer1 and Primer2 (See Table 2), and 0.02 U/μl of the DNA polymerase. Other conditions specific for each round of screening are described in Table 3. Amplified products were purified using DNA Clean and Concentrator-5 spin columns from Zymo Research (Irvine, Calif.). After purification, the PCR products were sequenced on a 3730 DNA Analyzer (Applied Biosystems) to determine the retention of the unnatural base pair as described below. Fidelity was characterized from unnatural base pair (UBP) retention as determined by sequencing with Primer1 on a 3730 DNA Analyzer (Applied Biosystems).
(§3) Specific PCR assay conditions. PCR with the most promising UBPs was carried out with the conditions as described in Table 3. PCR products were further purified on […] gels, followed by single band excision and subsequent clean up using the Zymo Research Zymoclean Gel DNA Recovery Kit. After elution with 20 μl of water, the DNA concentration was measured using fluorescent dye binding (Quant-iT dsDNA HS Assay kit, Life Technologies), and purified amplicons were sequenced in triplicate with both Primer1 and Primer2 to determine UBP retention and thus amplification fidelity. […]

OneTaq polymerase = assay: PCR-based screen and amplification of DNA containing unnatural base pairs, OneTaq (Example 1); format: biochemical; conditions: for Amplification: -^a = no amplification was detected
Procedure: as §1, §2, §3

[1] = Taq, 10 s Extension, 52 cycles, D6 template
[2] = OneTaq, 1 min Extension, 52 cycles, D6 template
[3] = OneTaq, 16 cycles, 1 min extension
[4] = ^a 100 pg D8 template, 16 cycles, Taq polymerase, 68° C. for 60 s
[5] = ^b 10 pg D6 template, 24 cycles, OneTaq polymerase, 68° C. for 10 s

T1 sequence (P19821 whole entry): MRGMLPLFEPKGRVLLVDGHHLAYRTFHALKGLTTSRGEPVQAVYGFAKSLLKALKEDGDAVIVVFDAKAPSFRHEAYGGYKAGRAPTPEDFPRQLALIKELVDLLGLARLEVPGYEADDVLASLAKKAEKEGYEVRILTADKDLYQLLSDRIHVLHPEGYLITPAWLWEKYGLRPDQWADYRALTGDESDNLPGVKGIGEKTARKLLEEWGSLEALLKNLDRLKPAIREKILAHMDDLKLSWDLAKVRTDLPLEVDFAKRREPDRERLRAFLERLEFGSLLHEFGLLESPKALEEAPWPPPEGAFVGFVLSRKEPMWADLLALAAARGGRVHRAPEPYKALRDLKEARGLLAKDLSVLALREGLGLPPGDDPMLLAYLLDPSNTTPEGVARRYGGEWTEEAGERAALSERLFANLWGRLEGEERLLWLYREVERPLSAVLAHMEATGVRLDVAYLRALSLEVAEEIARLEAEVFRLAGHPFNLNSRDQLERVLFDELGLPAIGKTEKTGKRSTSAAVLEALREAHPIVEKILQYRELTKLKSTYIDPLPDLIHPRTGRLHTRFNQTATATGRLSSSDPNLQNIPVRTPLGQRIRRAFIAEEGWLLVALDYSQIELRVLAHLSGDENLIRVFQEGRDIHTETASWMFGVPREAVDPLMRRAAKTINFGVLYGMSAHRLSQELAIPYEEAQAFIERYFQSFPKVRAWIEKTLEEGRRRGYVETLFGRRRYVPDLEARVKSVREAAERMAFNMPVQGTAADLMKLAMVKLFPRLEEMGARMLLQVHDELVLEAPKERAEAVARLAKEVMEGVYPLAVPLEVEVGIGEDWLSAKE

SMILES	Amplification, ×10^12 (Taq polymerase; [1])	Fidelity per Doubling, % (Taq polymerase; [1])	Retention, % (Taq polymerase; [1])	Amplification, ×10^12 (OneTaq polymerase; [2])	Fidelity per Doubling, % (OneTaq polymerase; [2]) [%]	Retention, % (OneTaq polymerase; [2]) [%]	Fidelity, % (OneTaq polymerase; [3])	Retention, % (OneTaq polymerase; [3])	Amplification (OneTaq polymerase; [3])	other results
COc1cc2ccccc2cc1[C@H]1C[C@H](O)[C@@H](COP(=O)(O)OP(=O)(O)OP(=O)(O)O)O1.Cc1ccc2c(=S)n([C@H]3C[C@H](O)[C@@H](COP(=O)(O)OP(=O)(O)OP(=O)(O)O)O3)ccc2c1 [5SICS-NaM, reference compound]	9.3 ×10^12	<85^b %	<50^b %	8.1 ×10^12	99.00 ± 0.02	77.1 ± 0.7	–	–	–	–
CSc1ccc(C2CC(O)C(CO)O2)c(SC)n1.OCC1OC(n2ccc3ccsc3c2=S)CC1O (stereo not drawn) [TPT3-TOK576]	–	–	–	–	–	–	98.35 ± 0.14%	85.20 ± 1.12%	780	Retention, % (OneTaq polymerase; OneTaq, 16 cycles, 1 min extension, listed as dTPT3-dTOK576): 85%
C#Cc1cc(OC)c([C@H]2C[C@H](O)[C@@H](COP(=O)(O)OP(=O)(O)OP(=O)(O)O)O2)cc1F.O=P(O)(O)OP(=O)(O)OP(=O)(O)OC[C@H]1O[C@@H](n2ccc3ccsc3c2=S)C[C@@H]1O [TPT3-FEMO]	5.0 ×10^12	99.44 ± 0.09%	79 ± 3%	10.4 ×10^12	99.55 ± 0.03	82.2 ± 1.0	–	–	–	–
COc1cc2ccccc2cc1[C@H]1C[C@H](O)[C@@H](COP(=O)(O)OP(=O)(O)OP(=O)(O)O)O1.O=P(O)(O)OP(=O)(O)OP(=O)(O)OC[C@H]1O[C@@H](n2cc(F)c3ccsc3c2=S)C[C@@H]1O [FTPT3-NaM]	3.7 ×10^12	99.76 ± 0.15%	91 ± 6%	7.0 ×10^12	99.76 ± 0.06	90 ± 2	–	–	–	–
COc1ccc([C@H]2C[C@H](O)[C@@H](COP(=O)(O)OP(=O)(O)OP(=O)(O)O)O2)c(OC)c1.O=P(O)(O)OP(=O)(O)OP(=O)(O)OC[C@H]1O[C@@H](n2ccc3ccsc3c2=S)C[C@@H]1O [TPT3-DMO]	–	–	–	–	–	–	98.23 ± 0.23%	84.02 ± 1.92%	864	–
COc1cc(C#N)ccc1[C@H]1C[C@H](O)[C@@H](COP(=O)(O)OP(=O)(O)OP(=O)(O)O)O1.O=P(O)(O)OP(=O)(O)OP(=O)(O)OC[C@H]1O[C@@H](n2cc(F)c3ccsc3c2=S)C[C@@H]1O [FTPT3-CNMO]	–	–	–	–	–	–	–	–	–	Retention, % (Taq polymerase; [4]): 94^a %
COc1cc(Cl)ccc1[C@H]1C[C@H](O)[C@@H](COP(=O)(O)OP(=O)(O)OP(=O)(O)O)O1.O=P(O)(O)OP(=O)(O)OP(=O)(O)OC[C@H]1O[C@@H](n2ccc3ccsc3c2=S)C[C@@H]1O [TPT3-CIMO]	–	–	–	–	–	–	–	–	–	Retention, % (OneTaq polymerase; [5]): 90^b %
Cc1ccc([C@H]2C[C@H](O)[C@@H](COP(=O)(O)OP(=O)(O)OP(=O)(O)O)O2)c(N)n1.O=P(O)(O)OP(=O)(O)OP(=O)(O)OC[C@H]1O[C@@H](n2ccc3ccsc3c2=S)C[C@@H]1O [TPT3-TOK586]	–	–	–	–	–	–	<85 ^b %	<50 ^b %	948	Retention, % (OneTaq polymerase; OneTaq, 16 cycles, 1 min extension, listed as dTPT3-dTOK586): poorly replicated
COc1cc2ccccc2cc1[C@H]1C[C@H](O)[C@@H](COP(=O)(O)OP(=O)(O)OP(=O)(O)O)O1.O=P(O)(O)OP(=O)(O)OP(=O)(O)OC[C@H]1O[C@@H](n2ccc3ccccc3c2=S)C[C@@H]1O [SICS-NaM]	–	–	–	–	–	–	–	–	–	Retention, % (Taq polymerase; [4]): 99^a %
COc1cc(I)ccc1[C@H]1C[C@H](O)[C@@H](COP(=O)(O)OP(=O)(O)OP(=O)(O)O)O1.O=P(O)(O)OP(=O)(O)OP(=O)(O)OC[C@H]1O[C@@H](n2ccc3ncccc3c2=S)C[C@@H]1O [SNICS-IMO]	–	–	–	–	–	–	–	–	–	Retention, % (OneTaq polymerase; [5]): 88^b %
